Data set [1] deals with Prostaglandin G/H synthase 1 (Homo sapiens, UniProt P23219). The data set is classed as cell-based, COS.
Description: Inhibition of human cyclooxygenase-1 expressed in COS cells
A short description of data set [2]: Distribution after iv administration of 2 mg/kg to rat. In kind it is ADME, organism-based. More on the design: dose 2 mg/kg, route intravenous. As to conditions: in vivo, read-out: Distribution.
Data set [3] can be described thus: Oral bioavailability after oral administration of 5 mg/kg to rat. In kind it is ADME, organism-based. As to conditions: in vivo, read-out: Bioavailabiility.
The nature of data set [4]: Clearance after iv administration of 2 mg/kg to rat. As to conditions: in vivo. More on the design: dose 2 mg/kg, route intravenous. In kind it is ADME, organism-based.
Data set [5] can be described thus: Half life after iv administration of 2 mg/kg to rat. The data set is classed as ADME, organism-based. Further details: dose 2 mg/kg, route intravenous. The settings on record: in vivo.
Data set [6] addresses T1, Prostaglandin G/H synthase 2 (Homo sapiens, UniProt P35354).
T1 sequence (P35354 whole entry): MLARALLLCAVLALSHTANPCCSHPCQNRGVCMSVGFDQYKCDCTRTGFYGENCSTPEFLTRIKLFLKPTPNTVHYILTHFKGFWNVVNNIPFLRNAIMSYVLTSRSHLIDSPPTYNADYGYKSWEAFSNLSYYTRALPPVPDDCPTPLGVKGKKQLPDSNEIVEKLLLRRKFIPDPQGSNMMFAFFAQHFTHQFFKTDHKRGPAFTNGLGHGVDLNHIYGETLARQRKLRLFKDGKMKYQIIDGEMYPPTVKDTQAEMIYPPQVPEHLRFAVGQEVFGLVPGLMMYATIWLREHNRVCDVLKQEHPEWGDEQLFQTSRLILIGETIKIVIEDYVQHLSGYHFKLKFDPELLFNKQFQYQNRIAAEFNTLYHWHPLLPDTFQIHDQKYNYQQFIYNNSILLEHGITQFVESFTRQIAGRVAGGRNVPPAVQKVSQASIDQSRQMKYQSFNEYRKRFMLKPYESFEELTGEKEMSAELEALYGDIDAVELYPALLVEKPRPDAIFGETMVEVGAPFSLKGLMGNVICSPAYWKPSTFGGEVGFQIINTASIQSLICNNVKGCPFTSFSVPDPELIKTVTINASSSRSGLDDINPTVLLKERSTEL
In kind it is cell-based, COS.
Description: Inhibition of human cyclooxygenase-2 expressed in COS cells

Data set [7] concerns the target T2, Prostaglandin G/H synthase 2 (Rattus norvegicus) (UniProt P35355).
T2 sequence (whole entry): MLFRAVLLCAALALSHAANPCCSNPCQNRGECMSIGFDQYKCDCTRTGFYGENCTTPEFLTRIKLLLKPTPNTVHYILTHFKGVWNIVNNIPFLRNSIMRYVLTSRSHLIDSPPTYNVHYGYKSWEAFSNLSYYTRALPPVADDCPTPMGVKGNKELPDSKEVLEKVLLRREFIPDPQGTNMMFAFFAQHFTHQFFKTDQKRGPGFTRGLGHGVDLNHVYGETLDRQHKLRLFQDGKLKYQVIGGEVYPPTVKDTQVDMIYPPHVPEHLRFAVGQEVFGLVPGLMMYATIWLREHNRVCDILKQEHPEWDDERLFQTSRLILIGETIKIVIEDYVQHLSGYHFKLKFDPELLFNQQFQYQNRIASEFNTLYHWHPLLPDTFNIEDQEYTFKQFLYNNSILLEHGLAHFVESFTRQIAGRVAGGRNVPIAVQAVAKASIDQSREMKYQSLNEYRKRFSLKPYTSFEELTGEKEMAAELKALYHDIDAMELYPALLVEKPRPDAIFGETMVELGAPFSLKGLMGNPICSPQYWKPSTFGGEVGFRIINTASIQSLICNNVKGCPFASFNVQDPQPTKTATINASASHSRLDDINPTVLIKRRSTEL
The data set is described as follows: Percent reversal of FCA-induced arthritis in rats at 10 mg/kg. In kind it is functional, organism-based. More on the design: dose 10 mg/kg.

Prostaglandin G/H synthase 1, sequence (P23219 whole entry): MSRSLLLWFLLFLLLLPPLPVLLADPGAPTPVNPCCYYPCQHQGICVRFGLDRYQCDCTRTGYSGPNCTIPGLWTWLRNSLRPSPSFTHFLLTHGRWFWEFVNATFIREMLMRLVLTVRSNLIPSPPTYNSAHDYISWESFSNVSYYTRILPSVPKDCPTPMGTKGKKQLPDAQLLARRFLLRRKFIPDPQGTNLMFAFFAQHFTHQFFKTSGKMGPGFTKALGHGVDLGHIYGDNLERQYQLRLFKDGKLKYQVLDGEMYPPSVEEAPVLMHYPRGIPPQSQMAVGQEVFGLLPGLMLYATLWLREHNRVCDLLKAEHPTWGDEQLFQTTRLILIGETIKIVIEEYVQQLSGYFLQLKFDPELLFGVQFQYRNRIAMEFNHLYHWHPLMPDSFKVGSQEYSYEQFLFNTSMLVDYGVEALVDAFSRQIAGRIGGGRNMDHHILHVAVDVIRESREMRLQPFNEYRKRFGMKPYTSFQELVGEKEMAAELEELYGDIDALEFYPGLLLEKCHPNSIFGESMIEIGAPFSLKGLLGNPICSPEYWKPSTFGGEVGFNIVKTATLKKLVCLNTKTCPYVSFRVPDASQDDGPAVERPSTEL

`CCOc1ccc(-c2nn3ncccc3c2-c2ccc(S(C)(=O)=O)cc2)cc1` [GW-406381] gave an IC50 in data set [1] of over 84.2 µM. Besides, in data set [2], the Vd is 3 L/kg. Further, the bioavailability in data set [3] was determined as 80%. Moreover, the clearance in data set [4] turned out to be 0.54 L/h/kg. Moreover, in data set [5], the half-life was 4.1 h.

For the compound `COc1ccc2c(-c3ccc(S(N)(=O)=O)cc3)c(-c3ccc(F)cc3)nn2n1`, the IC50 amounted to 0.026 µM in data set [6] and 2.61 µM in data set [1].

Regarding `CS(=O)(=O)c1ccc(-c2c(-c3ccc(F)cc3)nn3ncccc23)cc1`, the values for the IC50 in data set [6] and in data set [1] were 0.039 µM and over 100 µM, respectively.

Take `CS(=O)(=O)c1ccc(-c2c(-c3ccccc3)nn3ncccc23)cc1`: the figures for the concentration for half-maximal inhibition (IC50) in data set [6] and in data set [1] were 0.002 µM and over 100 µM, respectively.

As for `CCOc1ccc(-c2nn3nc(SC)ccc3c2-c2ccc(S(N)(=O)=O)cc2)cc1`, the IC50 is 0.013 µM in data set [6] and 8.63 µM in data set [1].

As to `Cc1ccc2c(-c3ccc(S(C)(=O)=O)cc3)c(-c3ccccc3)nn2n1`, the figures for the IC50 in data set [6] and in data set [1] were under 0.031 µM and 43.9 µM, respectively. Besides, the Reversal activity in data set [7] is 1%.

In the case of `CCc1ccc2c(-c3ccc(S(C)(=O)=O)cc3)c(-c3ccc(F)cc3)nn2n1`, the IC50 is 0.048 µM in data set [6] and over 100 µM in data set [1]. In addition, the Reversal activity in data set [7] was found to be 40%.

As for `CS(=O)(=O)c1ccc(-c2c(-c3cccc(F)c3)nn3ncccc23)cc1`, the results for the IC50 in data set [6] and in data set [1] were 0.034 µM and 58.3 µM, respectively. In data set [7], the Reversal activity is 78%.

For `CCOc1ccc(-c2nn3nc(S(C)(=O)=O)ccc3c2-c2ccc(S(N)(=O)=O)cc2)cc1`, the IC50 was 0.264 µM in data set [6] and over 100 µM in data set [1]. The Reversal activity in data set [7] came to 0%.

With `COc1ccc2c(-c3ccc(S(C)(=O)=O)cc3)c(-c3ccc(C)cc3)nn2n1`, the IC50 is 0.05 µM in data set [6] and over 100 µM in data set [1]. Moreover, the Reversal activity in data set [7] was 15%.

With `NS(=O)(=O)c1ccc(-c2c(-c3ccc(OC(F)(F)F)cc3)nn3ncccc23)cc1`, the IC50 was 0.388 µM in data set [6] and over 100 µM in data set [1]. The Reversal activity in data set [7] was 92%.

As for `CC(C)Oc1ccc2c(-c3ccc(S(C)(=O)=O)cc3)c(-c3ccc(F)cc3)nn2n1`, the IC50 was 0.057 µM in data set [6] and over 100 µM in data set [1].

On to `NS(=O)(=O)c1ccc(-c2c(-c3ccc(F)cc3)nn3ncccc23)cc1`, for which the IC50 in data set [6] is under 0.01 µM; in data set [1], 24.1 µM. In addition, in data set [7], the Reversal activity worked out at 0%.

As for `COc1ccc2c(-c3ccc(S(C)(=O)=O)cc3)c(-c3ccc(F)cc3)nn2n1`, the IC50 was 0.051 µM in data set [6] and over 35.1 µM in data set [1]. In data set [7], the Reversal activity was found to be 10%.

As for `CCOc1ccc2c(-c3ccc(S(C)(=O)=O)cc3)c(-c3ccc(F)cc3)nn2n1`, the IC50 was 0.043 µM in data set [6] and over 100 µM in data set [1]. In data set [7], the Reversal activity was found to be 11%.

In data set [1], `Cc1ccc(-c2ncc(Cl)cc2-c2ccc(S(C)(=O)=O)cc2)cn1` [ETORICOXIB] had an IC50 of over 100 µM.

For the compound `Cc1ccc2c(-c3ccc(S(C)(=O)=O)cc3)c(-c3ccc(F)cc3)nn2n1`, the figures for the concentration for half-maximal inhibition (IC50) in data set [6] and in data set [1] were 0.024 µM and over 100 µM, respectively.

With `Cc1ccc(-c2nn3ncccc3c2-c2ccc(S(C)(=O)=O)cc2)cc1`, the IC50 in data set [6] was 0.017 µM; in data set [1], over 19.1 µM. The Reversal activity in data set [7] came out at 23%.

The values are drawn from ChEMBL document CHEMBL1138006, “Identification of 2,3-diaryl-pyrazolo[1,5-b]pyridazines as potent and selective cyclooxygenase-2 inhibitors” (Bioorg Med Chem Lett, 2004).
